Molecular target: T1, human DGAT2 (Homo sapiens, UniProt Q96PD7)
T1 construct: made in house; host or cells: Sf-9 insect cells (baculovirus), membrane fraction
T1 sequence (Q96PD7 1-388): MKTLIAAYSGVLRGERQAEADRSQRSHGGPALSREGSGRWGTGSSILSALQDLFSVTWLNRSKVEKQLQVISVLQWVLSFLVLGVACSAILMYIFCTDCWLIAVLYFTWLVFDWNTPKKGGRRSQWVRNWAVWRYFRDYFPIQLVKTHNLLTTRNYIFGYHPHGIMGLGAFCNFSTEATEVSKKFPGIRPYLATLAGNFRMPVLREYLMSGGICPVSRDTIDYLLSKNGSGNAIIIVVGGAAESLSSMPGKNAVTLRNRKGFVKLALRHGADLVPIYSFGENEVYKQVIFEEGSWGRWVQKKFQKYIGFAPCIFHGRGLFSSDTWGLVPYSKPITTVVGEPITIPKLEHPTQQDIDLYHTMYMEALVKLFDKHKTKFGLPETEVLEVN
Assay: DGAT2 Enzymatic Activity Assay
Assay type: biochemical
Conditions: membrane prep of Sf-9 insect cells expressing hDGAT2; 13C18-triolein product by LC/MS/MS; 25 μM diolein, 5 μM 13C oleoyl-CoA
In short: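 Membrane fractions from Sf-9 cells expressing untagged human DGAT2 (baculovirus, 48 h) used as enzyme; reaction run at rt. Product ^13C18-triolein quantified by LC/MS/MS (positive HESI, C4 column) against ^13C21-triolein internal standard after liquid-liquid extraction; % inhibition versus high/low controls and IC50 derived.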

IC50 [nM] | Compound
787 | CN1C(C)(C)C(NC(=O)c2cc3cc(Oc4ncccc4OCC(F)(F)F)ccn3n2)CS1(=O)=O (racemic) [Example 2, 5-((3-(2,2,2-Trifluoroethoxy)pyridin-2-yl)oxy)-N-(2,3,3-trimethyl-1,1-dioxidoisothiazolidin-4-yl)pyrazolo[1,5-a]pyridine-2-carboxamide]
165 | O=C(NC1(C(F)F)CCS(=O)(=O)CC1)c1nc2cc(Oc3ncc(Cl)cc3OCC(F)(F)F)ccn2n1 [Example 64, 7-((5-Chloro-3-(2,2,2-trifluoroethoxy)pyridin-2-yl)oxy)-N-(4-(difluoromethyl)-1,1-dioxidotetrahydro-2H-thiopyran-4-yl)-[1,2,4]triazolo[1,5-a]pyridine-2-carboxamide]
> 9990 | CC1(NC(=O)c2cc3cc(Oc4ncc(C(O)C(F)(F)F)cc4OCC(F)(F)F)ccn3n2)CS(=O)(=O)C1 (single isomer, unassigned) [Example 45a, N-(3-Methyl-1,1-dioxidothietan-3-yl)-5-((5-(2,2,2-trifluoro-1-hydroxyethyl)-3-(2,2,2-trifluoroethoxy)pyridin-2-yl)oxy)pyrazolo[1,5-a]pyridine-2-carboxamide]
7.2 | Cc1c(C(=O)NC2(C)CCS(=O)(=O)CC2)nn2ccc(Oc3ncccc3OCC(F)(F)F)cc12 [Example 19, 3-Methyl-N-(4-methyl-1,1-dioxidotetrahydro-2H-thiopyran-4-yl)-5-((3-(2,2,2-trifluoroethoxy)pyridin-2-yl)oxy)pyrazolo[1,5-a]pyridine-2-carboxamide]
17 | CC1(NC(=O)c2cc3cc(Oc4nccnc4OCC(F)(F)F)ccn3n2)CCS(=O)(=O)CC1 [Example 13, N-(4-Methyl-1,1-dioxidotetrahydro-2H-thiopyran-4-yl)-5-((3-(2,2,2-trifluoroethoxy)pyrazin-2-yl)oxy)pyrazolo[1,5-a]pyridine-2-carboxamide]
33 | C[C@@]1(NC(=O)c2cc3cc(Oc4ncc(F)cc4OCC(F)(F)F)ccn3n2)CCS(=O)(=O)C1 [Example 18, (R)-5-((5-Fluoro-3-(2,2,2-trifluoroethoxy)pyridin-2-yl)oxy)-N-(3-methyl-1,1-dioxidotetrahydrothiophen-3-yl)pyrazolo[1,5-a]pyridine-2-carboxamide]
257 | CCc1c(C(=O)NC2(C)CS(=O)(=O)C2)nn2ccc(Oc3ncccc3OCC(F)(F)F)cc12 [Example 47, 3-Ethyl-N-(3-methyl-1,1-dioxidothietan-3-yl)-5-((3-(2,2,2-trifluoroethoxy)pyridin-2-yl)oxy)pyrazolo[1,5-a]pyridine-2-carboxamide]
1800 | CC1(NC(=O)c2cc3cc(Oc4ncc(F)cc4OC4CC4)ccn3n2)CS(=O)(=O)C1 [Example 12, 5-((3-Cyclopropoxy-5-fluoropyridin-2-yl)oxy)-N-(3-methyl-1,1-dioxidothietan-3-yl)pyrazolo[1,5-a]pyridine-2-carboxamide]
8.8 | CC1(NC(=O)c2nn3ccc(Oc4ncc(F)cc4OCC(F)(F)F)c(Cl)c3c2Cl)CCS(=O)(=O)CC1 [Example 33, 3,4-Dichloro-5-((5-fluoro-3-(2,2,2-trifluoroethoxy)pyridin-2-yl)oxy)-N-(4-methyl-1,1-dioxidotetrahydro-2H-thiopyran-4-yl)pyrazolo[1,5-a]pyridine-2-carboxamide]
46 | CC(C)c1c(C(=O)NC2(C)CCS(=O)(=O)CC2)nn2ccc(Oc3ncccc3OCC(F)(F)F)cc12 [Example 48, 3-Isopropyl-N-(4-methyl-1,1-dioxidotetrahydro-2H-thiopyran-4-yl)-5-((3-(2,2,2-trifluoroethoxy)pyridin-2-yl)oxy)pyrazolo[1,5-a]pyridine-2-carboxamide]
85 | CC1(NC(=O)c2cc3cc(Oc4ncc(F)cc4OC4CC4)ccn3n2)CCS(=O)(=O)CC1 [Example 10, 5-((3-Cyclopropoxy-5-fluoropyridin-2-yl)oxy)-N-(4-methyl-1,1-dioxidotetrahydro-2H-thiopyran-4-yl)pyrazolo[1,5-a]pyridine-2-carboxamide]
400 | C[C@]1(NC(=O)c2nn3ccc(Oc4ncccc4OCC(F)(F)F)cc3c2Cl)CCS(=O)(=O)C1 [Example 27, (S)-3-Chloro-N-(3-methyl-1,1-dioxidotetrahydrothiophen-3-yl)-5-((3-(2,2,2-trifluoroethoxy)pyridin-2-yl)oxy)pyrazolo[1,5-a]pyridine-2-carboxamide]

— patent US20260193249A1, “PREPARATION OF PYRAZOLOPYRIDINE AND TRIAZOLOPYRIDINE DERIVATIVES AS NOVEL DIACYLGLYCERIDE O-ACYLTRANSFERASE 2 INHIBITORS” (Merck Sharp & Dohme LLC, priority 2022, published 2026)
